Tested on: bone marrow
Assay: Micronucleus test, Experiment 7
Format: in vivo, ICR male mice
Conditions: oral 100 to 3000 mg/kg, mouse bone marrow, 24 hours
Experimental: 9,1-(Methylimino)methano-7-fluoro-8-(2-fluoromethylmorpholino)-5-oxo-5H-thiazolo[3,2-a]quinoline-4-carboxylic acid (compound of Example 3) [the compound (C) of the present invention] was suspended in sterilized distilled water. The suspension was orally administered to ICR male mice (8 weeks age, weighing 30 to 36 g, 3 mice in each group) at a rate of 3000, 1000, 300 or 100 mg/kg body weight of the test compound (C). After 24 hours, these mice were killed and the bone marrow was collected and observed the presence of micronuclei.

CN1Cc2csc3c(C(=O)O)c(=O)c4cc(F)c(N5CCOC(CF)C5)c1c4n23 (stereo not shown) [Compound (C), 9,1-(Methylimino)methano-7-fluoro-8-(2-fluoromethylmorpholino)-5-oxo-5H-thiazolo[3,2-a]quinoline-4-carboxylic acid]
micronucleus inducing activity: no nucleus inducing activity

Reference: patent publication US5191079A, “Quinolinecarboxylic acid derivatives” (priority 1990, dated 1993)
